According to patent US12091411B2, “IRAK degraders and uses thereof” (Kymera Therapeutics, Inc., priority 2022, dated 2024):
Where two headings read alike, the source gives them in different places.

Target: T1, IRAK4 (Homo sapiens, UniProt Q9NWZ3)
T1 construct: Degradation of IRAK4 in OCI-LY10 was quantitatively measured using Meso Scale Discovery technology; endogenous in cells; host or cells: OCI-LY10
T1 sequence (Q9NWZ3 1-460): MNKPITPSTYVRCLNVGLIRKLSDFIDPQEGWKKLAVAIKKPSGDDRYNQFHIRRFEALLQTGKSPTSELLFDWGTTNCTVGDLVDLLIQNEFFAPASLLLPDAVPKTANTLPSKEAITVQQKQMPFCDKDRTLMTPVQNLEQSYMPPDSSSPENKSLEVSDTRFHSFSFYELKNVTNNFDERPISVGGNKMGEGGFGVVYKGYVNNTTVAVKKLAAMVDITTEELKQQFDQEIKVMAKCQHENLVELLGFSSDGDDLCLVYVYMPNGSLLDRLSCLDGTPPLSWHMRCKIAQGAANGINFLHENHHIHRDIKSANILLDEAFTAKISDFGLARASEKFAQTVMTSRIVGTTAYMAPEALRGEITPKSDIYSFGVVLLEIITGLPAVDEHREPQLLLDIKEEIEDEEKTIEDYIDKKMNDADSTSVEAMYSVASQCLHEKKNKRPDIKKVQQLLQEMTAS
Experiment: IRAK4 MSD Degradation in OCI-LY10
Type: cell-based
Conditions: OCI-LY10 cells, MSD
In short: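 OCI-LY10 cells exposed to 8-point 1:3 compound series (top 1 to 10 μM) for 4 to 24 h at 37 °C, 5% CO2. Lysate IRAK4 quantified by MSD sandwich immunoassay. DC50 from three-parameter logistic fit, binned A (<0.01 μM) to D (>0.2 μM or not tested).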

[1] = 4 hrs incubation, read-out: IRAK4 degradation in OCI-LY10 at 4 hrs: DC50
[2] = 24 hrs incubation, read-out: IRAK4 degradation in OCI-LY10 at 24 hrs: DC50

A DC50 [1] greater than 200 nM and a DC50 [2] of less than 10 nM were found for `Cn1c(=O)n(C2CCC(=O)NC2=O)c2cccc(C[C@H]3C[C@H](N4CCN(C[C@H]5CC[C@H](n6cc(NC(=O)c7cnn8ccc(N9C[C@H]%10CC9CO%10)nc78)c(C(F)F)n6)CC5)CC4)C3)c21` (some centres unmarked) [I-576] in this work.

A DC50 [1] greater than 200 nM and a DC50 [2] of less than 10 nM were found for `Cn1c(=O)n(C2CCC(=O)NC2=O)c2cccc(C#CCO[C@H]3CCN(C[C@H]4CC[C@H](n5cc(NC(=O)c6cnn7ccc(N8CCS(=O)(=O)CC8)nc67)c(C(F)F)n5)CC4)C[C@@H]3F)c21` (some centres unmarked) [I-714] in this work.

A DC50 [1] greater than 200 nM and a DC50 [2] greater than 200 nM were found for `CO[C@@H]1CN(c2cccc3c2n(C)c(=O)n3C2CCC(=O)NC2=O)C[C@H]1N(C)C[C@H]1CC[C@H](n2cc3cc(NC(=O)c4cccc(C(F)(F)F)n4)ccc3n2)CC1` (some centres unmarked) [I-494] in this work.

A DC50 [1] of 10 to 100 nM and a DC50 [2] greater than 200 nM were found for `Cn1c(=O)n(C2CCC(=O)NC2=O)c2cccc(C#CCOC3CCN(Cc4ccc(-n5cc(NC(=O)c6cnn7ccc(N8C[C@H]9C[C@@H]8CO9)nc67)c(C(F)F)n5)cc4)CC3)c21` (some centres unmarked) [I-370] in this work.

A DC50 [1] greater than 200 nM and a DC50 [2] greater than 200 nM were found for `Cn1c(=O)n(C2CCC(=O)NC2=O)c2cccc(C[C@@H]3CN(Cc4ccc(-n5cc(NC(=O)c6cnn7ccc(N8C[C@H]9C[C@@H]8CO9)nc67)c(C(F)F)n5)cc4)CCO3)c21` (some centres unmarked) [I-394] in this work.

A DC50 [1] greater than 200 nM and a DC50 [2] of less than 10 nM were found for `Cn1c(=O)n(C2CCC(=O)NC2=O)c2cccc([C@H]3C[C@H](COC4CN(C[C@H]5CC[C@H](n6cc(NC(=O)c7cnn8ccc(N9C[C@H]%10C[C@@H]9CO%10)nc78)c(C(F)F)n6)CC5)C4)C3)c21` (some centres unmarked) [I-598] in this work.

A DC50 [1] of less than 10 nM and a DC50 [2] greater than 200 nM were found for `COc1ccc2c(c1C#CCN1CCN(C[C@H]3CC[C@H](n4cc(NC(=O)c5cnn6ccc(N7C[C@H]8C[C@@H]7CO8)nc56)c(C(F)F)n4)CC3)CC1)n(C)c(=O)n2C1CCC(=O)NC1=O` (some centres unmarked) [I-39] in this work.

A DC50 [1] of 10 to 100 nM and a DC50 [2] greater than 200 nM were found for `COc1ccc2c(c1C#CCO[C@@H]1CCN(C[C@H]3CC[C@H](n4cc(NC(=O)c5cnn6ccc(N7C[C@H]8C[C@@H]7CO8)nc56)c(C(F)F)n4)CC3)C[C@@H]1F)n(C)c(=O)n2C1CCC(=O)NC1=O` (some centres unmarked) [I-1] in this work.

A DC50 [1] of less than 10 nM and a DC50 [2] greater than 200 nM were found for `Cn1c(=O)n(C2CCC(=O)NC2=O)c2cccc(C#CCN3CC4CCC(C3)N4C[C@H]3CC[C@H](n4cc(NC(=O)c5cnn6ccc(N7C[C@H]8C[C@@H]7CO8)nc56)c(C(F)F)n4)CC3)c21` (some centres unmarked) [I-342] in this work.

A DC50 [1] greater than 200 nM and a DC50 [2] of less than 10 nM were found for `Cn1c(=O)n(C2CCC(=O)NC2=O)c2cccc(N3CC(CO[C@H]4CCN(C[C@H]5CC[C@H](n6cc(NC(=O)c7cnn8ccc(N9C[C@H]%10CC9CO%10)nc78)c(C(F)F)n6)CC5)C[C@@H]4F)C3)c21` (some centres unmarked) [I-587] in this work.

A DC50 [1] greater than 200 nM and a DC50 [2] of less than 10 nM were found for `Cc1cccc(C(=O)Nc2cc3cn([C@H]4CC[C@H](CN5CCN(c6c(F)ccc7c6n(C)c(=O)n7C6CCC(=O)NC6=O)CC5)CC4)nc3cn2)n1` (some centres unmarked) [I-695] in this work.

A DC50 [1] greater than 200 nM and a DC50 [2] of less than 10 nM were found for `Cn1c(=O)n(C2CCC(=O)NC2=O)c2cccc(C3=CCN(C[C@H]4CC[C@H](n5cc6cc(NC(=O)c7cccc(C(F)(F)F)n7)c(C#N)cc6n5)CC4)CC3F)c21` (some centres unmarked) [I-713] in this work.

A DC50 [1] of less than 10 nM and a DC50 [2] greater than 200 nM were found for `O=C1CCN(c2cncc3c(N4CCN(C5CCN(C[C@H]6CC[C@H](n7cc(NC(=O)c8cnn9ccc(N%10C[C@H]%11C[C@@H]%10CO%11)nc89)c(C(F)F)n7)CC6)CC5)CC4)cccc23)C(=O)N1` [I-76] in this work.

A DC50 [1] greater than 200 nM and a DC50 [2] of less than 10 nM were found for `CN(C[C@H]1CC[C@H](n2cc(NC(=O)c3cnn4ccc(N5CCOC6(CCC6)C5)nc34)c(C(F)F)n2)CC1)C1CCN(c2cccc3c2n(C)c(=O)n3C2CCC(=O)NC2=O)CC1` (some centres unmarked) [I-357] in this work.

A DC50 [1] greater than 200 nM and a DC50 [2] greater than 200 nM were found for `Cn1c(=O)n(C2CCC(=O)NC2=O)c2cccc([C@@H]3CCN(C[C@H]4CC[C@H](n5cc6cc(NC(=O)c7cccc(C(F)F)n7)ncc6n5)CC4)C[C@@H]3F)c21` (some centres unmarked) [I-640] in this work.

A DC50 [1] greater than 200 nM and a DC50 [2] of less than 10 nM were found for `Cn1c(=O)n(C2CCC(=O)NC2=O)c2cccc([C@@H]3CCN(C[C@H]4CC[C@H](n5cc6cc(NC(=O)c7cccc(C#N)n7)ccc6n5)CC4)C[C@H]3F)c21` (some centres unmarked) [I-625] in this work.
